# Like-named read-outs stand apart in the source and are kept apart here.
# Columns and labels:
# Assay in all cases: SelectScreen Kinase Profiling, single point inhibition and IC50 for off-target kinases
# Type in all cases: biochemical
# off-target kinases [1] = target: T1, off-target kinases (Homo sapiens, UniProt P41743); settings: PRKCI (PKC iota), ZLYTE, ATP Km app
# T1 sequence (P41743 1-596): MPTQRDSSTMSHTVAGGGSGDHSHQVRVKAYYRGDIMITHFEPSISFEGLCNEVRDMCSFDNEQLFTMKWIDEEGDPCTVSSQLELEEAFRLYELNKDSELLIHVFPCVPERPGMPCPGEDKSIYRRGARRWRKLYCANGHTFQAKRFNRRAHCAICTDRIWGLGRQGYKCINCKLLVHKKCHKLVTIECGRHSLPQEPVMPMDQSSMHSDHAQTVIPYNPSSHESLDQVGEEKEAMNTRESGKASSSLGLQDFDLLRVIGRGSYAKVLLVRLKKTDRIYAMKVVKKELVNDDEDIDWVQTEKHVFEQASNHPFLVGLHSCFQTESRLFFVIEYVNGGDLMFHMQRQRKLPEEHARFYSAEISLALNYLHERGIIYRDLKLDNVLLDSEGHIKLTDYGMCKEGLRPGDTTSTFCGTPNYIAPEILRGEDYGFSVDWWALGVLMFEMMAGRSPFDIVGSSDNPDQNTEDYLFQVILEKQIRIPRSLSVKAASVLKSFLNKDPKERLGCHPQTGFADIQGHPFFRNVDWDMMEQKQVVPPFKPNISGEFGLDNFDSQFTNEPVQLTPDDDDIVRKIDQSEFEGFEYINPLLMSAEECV
# off-target kinases [2] = target: off-target kinases (Homo sapiens, UniProt P16234, V561D); settings: PDGFRA V561D, ATP Km app, ZLYTE
# off-target kinases [3] = target: T2, off-target kinases (Homo sapiens, UniProt P46734); settings: MAP2K3 (MEK3), LanthaScreen Binding
# T2 sequence (P46734 1-347): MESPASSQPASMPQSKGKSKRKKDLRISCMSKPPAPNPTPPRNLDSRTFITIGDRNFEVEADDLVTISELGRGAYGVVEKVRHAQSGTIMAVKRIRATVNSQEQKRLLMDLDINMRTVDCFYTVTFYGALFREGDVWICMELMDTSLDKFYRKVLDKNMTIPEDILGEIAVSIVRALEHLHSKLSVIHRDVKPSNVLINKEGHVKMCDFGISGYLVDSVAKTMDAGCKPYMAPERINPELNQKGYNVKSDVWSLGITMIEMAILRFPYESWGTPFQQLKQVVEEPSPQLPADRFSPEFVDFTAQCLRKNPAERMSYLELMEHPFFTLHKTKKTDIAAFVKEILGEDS
# off-target kinases [4] = target: off-target kinases (Homo sapiens, UniProt P27448); settings: MARK3, ATP Km app, ZLYTE
# off-target kinases [5] = target: off-target kinases (Homo sapiens, UniProt P53671); settings: LIMK2, LanthaScreen Binding
# off-target kinases [6] = target: off-target kinases (Homo sapiens, UniProt O75116); settings: ROCK2, ZLYTE, ATP Km app
# off-target kinases [7] = target: off-target kinases (Homo sapiens, UniProt O75676); settings: RPS6KA4 (MSK2), ZLYTE, ATP Km app
# off-target kinases [8] = target: off-target kinases (Homo sapiens, UniProt Q9BYP7)
# Sequence of off-target kinases (Homo sapiens, UniProt P53671) (P53671 whole entry): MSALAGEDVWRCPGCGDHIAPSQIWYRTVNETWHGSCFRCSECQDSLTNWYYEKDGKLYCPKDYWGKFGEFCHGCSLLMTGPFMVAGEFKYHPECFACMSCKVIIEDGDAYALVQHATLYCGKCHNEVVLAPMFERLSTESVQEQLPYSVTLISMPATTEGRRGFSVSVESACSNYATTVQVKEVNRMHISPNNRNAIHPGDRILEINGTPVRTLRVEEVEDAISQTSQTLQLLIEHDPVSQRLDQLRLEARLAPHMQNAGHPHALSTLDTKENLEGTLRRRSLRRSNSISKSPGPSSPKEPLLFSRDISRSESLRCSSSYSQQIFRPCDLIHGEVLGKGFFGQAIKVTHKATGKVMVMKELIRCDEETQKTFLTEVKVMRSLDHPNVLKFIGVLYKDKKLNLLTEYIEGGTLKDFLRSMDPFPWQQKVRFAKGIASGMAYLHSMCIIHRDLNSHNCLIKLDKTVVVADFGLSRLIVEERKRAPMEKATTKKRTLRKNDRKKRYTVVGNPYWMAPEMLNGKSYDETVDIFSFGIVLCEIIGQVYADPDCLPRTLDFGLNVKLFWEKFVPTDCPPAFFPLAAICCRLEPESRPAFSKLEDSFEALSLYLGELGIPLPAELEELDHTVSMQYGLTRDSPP
# Sequence of off-target kinases (Homo sapiens, UniProt O75676) (O75676 whole entry): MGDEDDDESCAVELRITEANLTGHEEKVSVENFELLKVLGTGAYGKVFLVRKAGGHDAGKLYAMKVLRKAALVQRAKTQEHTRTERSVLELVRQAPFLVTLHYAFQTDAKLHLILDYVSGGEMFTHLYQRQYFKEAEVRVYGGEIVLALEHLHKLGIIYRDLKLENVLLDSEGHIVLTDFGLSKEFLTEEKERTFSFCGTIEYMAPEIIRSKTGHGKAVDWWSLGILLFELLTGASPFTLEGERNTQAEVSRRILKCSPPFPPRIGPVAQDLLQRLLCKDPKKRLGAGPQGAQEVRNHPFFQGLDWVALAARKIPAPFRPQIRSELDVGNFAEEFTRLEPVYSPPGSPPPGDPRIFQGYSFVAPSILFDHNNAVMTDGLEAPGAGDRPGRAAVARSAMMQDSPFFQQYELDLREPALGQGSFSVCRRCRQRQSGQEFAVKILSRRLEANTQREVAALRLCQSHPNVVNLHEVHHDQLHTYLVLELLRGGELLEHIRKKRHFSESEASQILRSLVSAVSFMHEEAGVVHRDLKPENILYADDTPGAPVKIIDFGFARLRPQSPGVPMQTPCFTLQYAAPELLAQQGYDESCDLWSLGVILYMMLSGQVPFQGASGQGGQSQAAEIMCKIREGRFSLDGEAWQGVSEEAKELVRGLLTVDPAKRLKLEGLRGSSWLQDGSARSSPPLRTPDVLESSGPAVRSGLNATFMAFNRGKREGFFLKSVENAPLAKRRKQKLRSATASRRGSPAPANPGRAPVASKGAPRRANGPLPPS
# Sequence of off-target kinases (Homo sapiens, UniProt P16234, V561D) (P16234 24-1089 V561D): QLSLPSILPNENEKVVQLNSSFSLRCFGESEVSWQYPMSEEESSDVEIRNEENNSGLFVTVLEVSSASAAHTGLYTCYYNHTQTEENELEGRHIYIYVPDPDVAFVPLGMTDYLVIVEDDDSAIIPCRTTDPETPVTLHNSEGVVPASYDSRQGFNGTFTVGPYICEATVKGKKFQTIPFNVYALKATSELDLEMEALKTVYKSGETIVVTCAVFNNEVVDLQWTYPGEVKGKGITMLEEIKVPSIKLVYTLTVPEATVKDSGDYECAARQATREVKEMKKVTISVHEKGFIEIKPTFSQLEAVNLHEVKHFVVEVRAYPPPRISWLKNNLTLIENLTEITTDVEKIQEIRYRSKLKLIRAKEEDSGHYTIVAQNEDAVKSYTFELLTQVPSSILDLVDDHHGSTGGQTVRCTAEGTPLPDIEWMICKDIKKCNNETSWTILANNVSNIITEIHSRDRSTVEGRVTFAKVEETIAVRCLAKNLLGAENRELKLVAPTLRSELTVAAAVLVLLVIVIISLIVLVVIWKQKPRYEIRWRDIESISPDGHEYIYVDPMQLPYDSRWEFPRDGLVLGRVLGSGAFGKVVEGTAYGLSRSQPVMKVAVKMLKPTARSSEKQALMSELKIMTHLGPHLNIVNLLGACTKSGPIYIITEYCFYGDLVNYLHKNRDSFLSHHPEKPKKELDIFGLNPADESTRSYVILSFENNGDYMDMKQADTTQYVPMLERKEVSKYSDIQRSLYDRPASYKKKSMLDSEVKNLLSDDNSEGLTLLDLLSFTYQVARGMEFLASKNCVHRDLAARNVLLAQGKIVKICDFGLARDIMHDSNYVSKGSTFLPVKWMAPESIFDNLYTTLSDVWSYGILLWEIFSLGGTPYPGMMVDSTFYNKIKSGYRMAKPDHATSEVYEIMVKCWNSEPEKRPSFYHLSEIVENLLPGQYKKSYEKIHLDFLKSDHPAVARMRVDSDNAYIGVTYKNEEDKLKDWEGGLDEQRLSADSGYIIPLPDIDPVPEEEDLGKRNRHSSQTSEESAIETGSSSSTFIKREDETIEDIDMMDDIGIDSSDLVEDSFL
# Sequence of off-target kinases (Homo sapiens, UniProt P27448) (P27448 whole entry): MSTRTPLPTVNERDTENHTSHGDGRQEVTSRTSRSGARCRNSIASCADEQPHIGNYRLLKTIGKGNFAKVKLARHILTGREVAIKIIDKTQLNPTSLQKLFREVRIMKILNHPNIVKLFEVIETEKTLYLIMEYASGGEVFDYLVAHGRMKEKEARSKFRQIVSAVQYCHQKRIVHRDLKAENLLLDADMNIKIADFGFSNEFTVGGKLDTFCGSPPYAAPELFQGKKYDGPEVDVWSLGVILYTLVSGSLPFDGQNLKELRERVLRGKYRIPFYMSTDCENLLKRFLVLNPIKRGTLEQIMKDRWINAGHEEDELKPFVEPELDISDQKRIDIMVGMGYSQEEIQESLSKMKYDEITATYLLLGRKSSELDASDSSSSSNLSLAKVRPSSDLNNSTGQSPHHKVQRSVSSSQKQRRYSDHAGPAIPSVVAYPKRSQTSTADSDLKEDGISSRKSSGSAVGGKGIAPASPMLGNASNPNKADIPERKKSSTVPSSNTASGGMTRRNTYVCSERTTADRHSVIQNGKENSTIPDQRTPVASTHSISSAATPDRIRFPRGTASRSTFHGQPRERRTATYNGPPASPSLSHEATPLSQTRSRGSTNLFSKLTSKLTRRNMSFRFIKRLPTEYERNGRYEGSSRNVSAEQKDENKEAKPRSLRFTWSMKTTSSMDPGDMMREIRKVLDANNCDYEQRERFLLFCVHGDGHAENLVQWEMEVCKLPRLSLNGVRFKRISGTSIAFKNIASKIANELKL
# Sequence of off-target kinases (Homo sapiens, UniProt O75116) (O75116 whole entry): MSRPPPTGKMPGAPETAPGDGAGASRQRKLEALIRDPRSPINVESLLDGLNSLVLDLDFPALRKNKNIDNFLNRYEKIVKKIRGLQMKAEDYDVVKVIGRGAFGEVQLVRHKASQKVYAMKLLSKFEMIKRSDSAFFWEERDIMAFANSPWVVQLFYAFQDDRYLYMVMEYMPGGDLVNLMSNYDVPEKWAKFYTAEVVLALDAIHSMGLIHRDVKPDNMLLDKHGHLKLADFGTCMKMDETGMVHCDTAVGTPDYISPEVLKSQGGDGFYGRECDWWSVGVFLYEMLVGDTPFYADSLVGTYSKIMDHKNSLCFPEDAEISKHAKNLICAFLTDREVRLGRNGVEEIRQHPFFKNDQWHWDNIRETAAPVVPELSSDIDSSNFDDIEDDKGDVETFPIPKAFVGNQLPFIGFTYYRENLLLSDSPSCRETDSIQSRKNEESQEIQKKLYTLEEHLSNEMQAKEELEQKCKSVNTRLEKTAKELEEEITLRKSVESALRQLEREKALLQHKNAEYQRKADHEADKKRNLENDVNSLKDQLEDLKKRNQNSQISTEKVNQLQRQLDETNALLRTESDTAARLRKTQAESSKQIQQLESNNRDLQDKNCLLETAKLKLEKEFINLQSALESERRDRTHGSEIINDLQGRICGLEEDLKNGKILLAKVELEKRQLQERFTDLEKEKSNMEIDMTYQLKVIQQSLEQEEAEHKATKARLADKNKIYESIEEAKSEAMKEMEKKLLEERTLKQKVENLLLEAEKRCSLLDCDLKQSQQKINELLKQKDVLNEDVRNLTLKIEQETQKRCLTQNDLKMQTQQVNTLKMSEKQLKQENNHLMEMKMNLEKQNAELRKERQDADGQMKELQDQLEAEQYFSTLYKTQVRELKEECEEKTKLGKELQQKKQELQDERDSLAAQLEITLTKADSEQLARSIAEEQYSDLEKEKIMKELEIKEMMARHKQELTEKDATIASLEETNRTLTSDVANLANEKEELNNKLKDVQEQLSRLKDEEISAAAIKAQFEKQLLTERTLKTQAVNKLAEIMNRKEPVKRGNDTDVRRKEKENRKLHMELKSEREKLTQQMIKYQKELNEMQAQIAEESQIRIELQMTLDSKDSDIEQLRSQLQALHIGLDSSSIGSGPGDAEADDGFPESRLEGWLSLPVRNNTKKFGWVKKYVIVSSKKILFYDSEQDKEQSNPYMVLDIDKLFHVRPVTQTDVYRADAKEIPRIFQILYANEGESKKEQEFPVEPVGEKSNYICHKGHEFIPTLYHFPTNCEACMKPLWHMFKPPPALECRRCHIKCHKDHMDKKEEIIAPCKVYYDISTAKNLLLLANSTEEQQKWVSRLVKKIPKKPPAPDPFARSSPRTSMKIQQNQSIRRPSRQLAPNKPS
smiles,measurement,setting,value
"N#Cc1cc(-c2ncnc(Nc3ccc(N4CCN(C5COC5)CC4)cc3)n2)ccc1OC1CCOCC1 [Compound 1, 5-(4-((4-(4-(oxetan-3-yl)piperazin-1-yl)phenyl)amino)-1,3,5-triazin-2-yl)-2-((tetrahydro-2H-pyran-4-yl)oxy)benzonitrile]",inhibition,off-target kinases [1]; read-out: % Inhibition 1,5%
same,inhibition,off-target kinases [1]; read-out: % Inhibition 2,7%
same,inhibition,off-target kinases [1]; read-out: % Inhibition Avg,6%
same,inhibition,off-target kinases [2]; read-out: % Inhibition 1,85%
same,inhibition,off-target kinases [2]; read-out: % Inhibition 2,81%
same,inhibition,off-target kinases [2]; read-out: % Inhibition Avg,83%
same,inhibition,off-target kinases [3]; read-out: % Inhibition 1,5%
same,inhibition,off-target kinases [3]; read-out: % Inhibition 2,8%
same,inhibition,off-target kinases [3]; read-out: % Inhibition Avg,7%
same,inhibition,off-target kinases [4]; read-out: % Inhibition 1,98%
same,inhibition,off-target kinases [4]; read-out: % Inhibition 2,94%
same,inhibition,off-target kinases [4]; read-out: % Inhibition Avg,96%
same,inhibition,off-target kinases [5]; read-out: % Inhibition 1,14%
same,inhibition,off-target kinases [5]; read-out: % Inhibition 2,19%
same,inhibition,off-target kinases [5]; read-out: % Inhibition Avg,17%
same,inhibition,off-target kinases [6]; read-out: % Inhibition 1,12%
same,inhibition,off-target kinases [6]; read-out: % Inhibition 2,14%
same,inhibition,off-target kinases [6]; read-out: % Inhibition Avg,13%
same,inhibition,off-target kinases [7]; read-out: % Inhibition 1,0%
same,inhibition,off-target kinases [7]; read-out: % Inhibition 2,2%
same,inhibition,off-target kinases [7]; read-out: % Inhibition Avg,1%
same,inhibition,"off-target kinases [8]; WNK3, LanthaScreen Binding, read-out: % Inhibition 1",-3%
same,inhibition,"off-target kinases [8]; WNK3, LanthaScreen Binding, read-out: % Inhibition Avg",-2%
same,inhibition,off-target kinases [8]; read-out: % Inhibition 2,0%
